{
  "source": "paper PMC4805082",
  "about": "“Seizure control by decanoic acid through direct AMPA receptor inhibition” (Brain, 2015)",
  "key": {"[1]": {"test_system": "GABAA receptor mediated IPSCs in hippocampal CA1 pyramidal neurons", "assay": "Whole-cell patch clamp, evoked GABAA receptor mediated IPSCs in CA1 pyramidal cells", "format": "cell-based, rat", "conditions": "300 µM", "description": "Male Sprague-Dawley rats (postnatal Days 19–30) were sacrificed using an overdose of isoflurane or pentobarbitone (500 mg/kg). After decapitation the brain was rapidly removed, the hippocampus or entorhinal cortex-hippocampus slices was dissected from the brain and […] thick transverse slices were prepared on a VT1200S vibratome (Leica) or Vibratome (Vibratome® 1500 sectioning system, Intracell). The slicing was performed in ice-cold sucrose-based solution containing (in mM): 75 sucrose, 87 NaCl, 22 glucose, 2.5 KCl, 7 MgCl2, 1.25 NaH2PO4, 0.5 CaCl2 and 25 NaHCO3, pH 7.4, 315–330 mOsm equilibrated with 95% O2 plus 5% CO2. […]\nFor electrophysiological recording, the slices were placed in a recording chamber constantly perfused with 32–34°C oxygenated artificial CSF solution using a gravity-driven perfusion system. […] Series resistance was monitored throughout experiments using a −5 mV step command and cells showing a >20% change in series resistance, a series of resistance of >20 MΩ or an unstable holding current were rejected. […] Inhibitory postsynaptic current (IPSCs) were recorded in the presence of DL-APV (100 µM), NBQX (10 µM) and CGP55845 (5 µM) to block NMDA-, AMPA- and GABAB-receptors, respectively. […]"}, "[2]": {"test_system": "epileptiform activity (burst discharges) in hippocampal slices induced by low-Mg2+", "assay": "In vitro seizure model, low-Mg2+ induced epileptiform activity in hippocampal slices", "format": "cell-based, rat", "conditions": "1 mM; low magnesium", "description": "Male Sprague-Dawley rats (postnatal Days 19–30) were sacrificed using an overdose of isoflurane or pentobarbitone (500 mg/kg). After decapitation the brain was rapidly removed, the hippocampus or entorhinal cortex-hippocampus slices was dissected from the brain and […] thick transverse slices were prepared on a VT1200S vibratome (Leica) or Vibratome (Vibratome® 1500 sectioning system, Intracell). The slicing was performed in ice-cold sucrose-based solution containing (in mM): 75 sucrose, 87 NaCl, 22 glucose, 2.5 KCl, 7 MgCl2, 1.25 NaH2PO4, 0.5 CaCl2 and 25 NaHCO3, pH 7.4, 315–330 mOsm equilibrated with 95% O2 plus 5% CO2. The slices were then stored in a continuously oxygenated humidified interface holding chamber containing oxygenated artificial CSF (in mM): 120 NaCl, 22 glucose, 2.5 KCl, 1.3 MgSO4, 1 NaH2PO4, 25 NaHCO3 and 2.5 CaCl2, pH 7.4 296 mOsm, where they recovered for at least 1 h before use.\nDuring the experiment, slices were transferred from the interface chamber into a submerged recording chamber, designed to optimize wash-in and wash-out of drugs, and continuously perfused using gravity feed at 3–6 ml/min with prewarmed (36°C) oxygenated artificial CSF (95% O2, 5% CO2). Field potentials were recorded with a glass microelectrode (1–2 MΩ) filled with artificial CSF solution placed in stratum radiatum of CA1 and were filtered at 1 kHz and digitized at 2 kHz (using an npi EXT-02F extracellular amplifier recorded with WinEDR software). In the pentylenetetrazol model, the epileptiform (paroxysmal) activity was induced by application of pentylenetetrazol (2 mM) to the perfusate and [K^+] was increased (to 6 mM); in low-Mg^2+ model, the epileptiform activity was elicited by using Mg^2+-free artificial CSF. Once the frequency of the paroxysmal activity was stable for at least 10 min, compounds were applied to the perfusate for the following 40 min, and washed out for a remaining 20 min. The anticonvulsant effects were evaluated by measuring the change in the frequency of the discharges at minute intervals. […]"}, "[3]": {"target": "T1, AMPA receptor GluA1/2 (Homo sapiens, UniProt P42261+P42262)", "T1 construct": "expressed in transfected cells; host or cells: Xenopus laevis oocytes injected with cRNA (1:1 mix)", "T1 sequence (P42261 19-906 isoform P42261-2 limits assumed)": "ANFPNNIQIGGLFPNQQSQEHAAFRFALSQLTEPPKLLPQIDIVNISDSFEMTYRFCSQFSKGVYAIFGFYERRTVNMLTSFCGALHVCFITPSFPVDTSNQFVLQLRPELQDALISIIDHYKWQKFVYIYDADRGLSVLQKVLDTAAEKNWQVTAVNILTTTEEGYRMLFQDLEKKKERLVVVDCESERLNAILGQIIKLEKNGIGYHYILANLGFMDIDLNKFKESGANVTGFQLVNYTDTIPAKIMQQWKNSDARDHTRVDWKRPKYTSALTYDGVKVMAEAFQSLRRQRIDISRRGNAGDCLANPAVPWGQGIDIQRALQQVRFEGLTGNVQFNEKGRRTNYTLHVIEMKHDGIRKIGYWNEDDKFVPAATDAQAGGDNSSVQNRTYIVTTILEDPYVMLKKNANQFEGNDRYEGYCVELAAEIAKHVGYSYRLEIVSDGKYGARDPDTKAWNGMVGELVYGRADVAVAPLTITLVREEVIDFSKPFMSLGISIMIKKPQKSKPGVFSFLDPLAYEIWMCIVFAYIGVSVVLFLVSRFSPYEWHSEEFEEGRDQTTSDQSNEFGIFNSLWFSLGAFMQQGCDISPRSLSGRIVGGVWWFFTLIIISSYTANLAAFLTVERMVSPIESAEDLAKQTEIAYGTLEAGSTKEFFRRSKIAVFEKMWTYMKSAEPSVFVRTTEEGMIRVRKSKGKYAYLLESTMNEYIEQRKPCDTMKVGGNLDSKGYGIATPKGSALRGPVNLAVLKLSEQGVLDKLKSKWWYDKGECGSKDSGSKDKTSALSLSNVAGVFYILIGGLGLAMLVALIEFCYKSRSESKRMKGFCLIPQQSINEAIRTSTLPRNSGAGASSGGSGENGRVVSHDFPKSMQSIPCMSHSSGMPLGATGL", "T1 sequence (P42262 22-883 isoform P42262-2 limits assumed)": "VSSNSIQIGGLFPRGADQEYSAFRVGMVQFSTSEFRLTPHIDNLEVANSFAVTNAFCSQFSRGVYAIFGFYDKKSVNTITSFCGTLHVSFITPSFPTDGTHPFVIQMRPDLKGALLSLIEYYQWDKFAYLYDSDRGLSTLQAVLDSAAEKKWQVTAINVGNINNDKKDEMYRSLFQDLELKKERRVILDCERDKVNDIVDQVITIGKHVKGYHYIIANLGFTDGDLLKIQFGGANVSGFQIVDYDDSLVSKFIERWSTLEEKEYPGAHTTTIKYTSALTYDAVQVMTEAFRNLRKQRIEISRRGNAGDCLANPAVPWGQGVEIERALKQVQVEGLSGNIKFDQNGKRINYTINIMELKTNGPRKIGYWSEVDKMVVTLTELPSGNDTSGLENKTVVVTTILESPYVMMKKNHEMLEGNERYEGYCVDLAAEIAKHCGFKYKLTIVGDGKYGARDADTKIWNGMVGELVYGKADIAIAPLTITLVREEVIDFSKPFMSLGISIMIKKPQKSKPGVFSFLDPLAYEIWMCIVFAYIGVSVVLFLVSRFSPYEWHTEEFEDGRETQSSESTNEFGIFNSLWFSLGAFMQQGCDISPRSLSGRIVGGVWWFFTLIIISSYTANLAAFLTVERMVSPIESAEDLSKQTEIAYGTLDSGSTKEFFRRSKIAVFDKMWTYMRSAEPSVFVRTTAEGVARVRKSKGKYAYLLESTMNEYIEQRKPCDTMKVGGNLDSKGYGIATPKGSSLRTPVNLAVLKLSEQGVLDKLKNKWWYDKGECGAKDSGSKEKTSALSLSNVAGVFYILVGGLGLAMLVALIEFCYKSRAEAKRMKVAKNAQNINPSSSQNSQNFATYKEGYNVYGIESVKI", "assay": "Two-electrode voltage clamp, AMPA receptor GluA1/2 expressed in Xenopus oocytes", "format": "cell-based", "description": "The AMPA receptor (flip isoform) cDNAs inserted in a SP6 polymerase expression vector (pSP6T) were a generous gift from Prof. Ralf Schoepfer (NPP, UCL). […] AMPA receptor cRNAs were mixed in a nominal 1:1 ratio and ∼5 ng was injected per oocyte.\nXenopus laevis oocytes were purchased from the European Xenopus Resource Centre, University of Portsmouth. Stage V to VI oocytes were mechanically dissected and then subjected to gentle shaking for ∼30–50 min at room temperature with modified Barth’s solution (in mM): 88 NaCl, 1 KCl, 2.4 NaHCO3, 0.82 MgCl2, 0.77 CaCl2, 15 Tris-Cl, adjusted to pH 7.4 with NaOH (Sigma-Aldrich), supplemented with 50 IU/ml penicillin and 50 µg/ml streptomycin (Invitrogen) and 50 µg/ml tetracycline (Sigma-Aldrich) and 1% collagenase (type 1A). Healthy oocytes were manually defolliculated and the injections of cRNA for homomeric subunits alone (GluA1), or heteromeric mixtures of two subunits together (GluA1/GluA2 or GluA2/GluA3) were made using an automated Drummond Nanoinject II injector. The oocytes were then incubated at 17°C in modified Barth’s solution for at least 48 h before use in electrophysiological recordings.\nExperiments were performed at room temperature (∼21–23°C). […]"}},
  "note": "pIC50: −log10 of the molar value.",
  "data": [
    {"smiles": "CCCCCCCCCC(=O)O", "note": "[decanoic acid]", "values": [
      {"measurement": "effect on evoked IPSCs", "setting": "[1]", "value": "no significant effect"},
      {"measurement": "effect on 1/CV^2 for IPSCs", "setting": "[1]; versus baseline, n = 6", "value": "no effect"},
      {"measurement": "effect on epileptiform activity", "setting": "[2]", "value": "completely blocked"},
      {"measurement": "pIC50", "setting": "[3]", "value": 2.94}
    ]}
  ]
}
